Data published in patent publication US10828316B2, “Method of treating bacterial infections” (priority 2016, dated 2020).
Read-outs that look alike come from different tables or passages of the source.

How the values were obtained:
E. coli EN001 = assay: MIC; format: cell-based, Escherichia coli
K. pneumoniae EN0463 = assay: MIC; format: cell-based, Klebsiella pneumoniae; conditions: Klebsiella pneumoniae, Combination 2, read-out: MIC, thymidine concentration
P. aeruginosa EN004 = assay: MIC; format: cell-based, Pseudomonas aeruginosa; conditions: Pseudomonas aeruginosa, Combination 2, read-out: MIC, thymidine concentration
E. coli EN002 = assay: MIC; format: cell-based, Escherichia coli
S. epidermidis EN0456 = assay: MIC; format: cell-based, Staphylococcus epidermidis; conditions: Staphylococcus epidermidis, Combination 2, read-out: MIC, thymidine concentration
A. baumannii EN016 = assay: MIC; format: cell-based, Acinetobacter baumannii; conditions: Acinetobacter baumannii, Combination 2, read-out: MIC, thymidine concentration
S. aureus EN008 = assay: MIC; format: cell-based, Staphylococcus aureus; conditions: Staphylococcus aureus, Combination 2, read-out: MIC, thymidine concentration
S. marescens EN0454 = assay: MIC; format: cell-based, Serratia marescens; conditions: Serratia, Combination 2, read-out: MIC, thymidine concentration
K. pneumoniae EN006 = assay: MIC; format: cell-based, Klebsiella pneumoniae; conditions: Klebsiella pneumoniae, Combination 2, read-out: MIC, thymidine concentration
E. coli EN012 = assay: MIC; format: cell-based, Escherichia coli; conditions: Escherichia coli, Combination 2, read-out: MIC, thymidine concentration
Citrobacter sp. EN0465 = assay: MIC; format: cell-based; conditions: Combination 2, read-out: MIC, thymidine concentration
P. aeruginosa EN0460 = assay: MIC; format: cell-based, Pseudomonas aeruginosa; conditions: Pseudomonas aeruginosa, Combination 2, read-out: MIC, thymidine concentration
P. aeruginosa EN015 = assay: MIC; format: cell-based, Pseudomonas aeruginosa; conditions: Pseudomonas aeruginosa
P. mirabilis ST19 EN0445 = assay: MIC; format: cell-based, Proteus mirabilis; conditions: Proteus mirabilis, ST19EN0445, Combination 2, read-out: MIC, thymidine concentration
M. luteus EN0455 = assay: MIC; format: cell-based, Micrococcus luteus; conditions: Micrococcus luteus, Combination 2, read-out: MIC, thymidine concentration
A. baumannii EN017 = assay: MIC; format: cell-based, Acinetobacter baumannii; conditions: Acinetobacter baumannii; A. baumannii EN017; Combination 2; read-out: MIC, thymidine concentration
S. typhimurium EN0466 = assay: MIC; format: cell-based, Salmonella typhimurium
E. coli EN003 = assay: MIC; format: cell-based, Escherichia coli; conditions: Escherichia coli, Combination 2, read-out: MIC, thymidine concentration
P. mirabilis EN0457 = assay: MIC; format: cell-based, Proteus mirabilis; conditions: Proteus mirabilis, Combination 2, read-out: MIC, thymidine concentration
P. aeruginosa EN0422 = assay: MIC; format: cell-based, Pseudomonas aeruginosa; conditions: Pseudomonas aeruginosa, Combination 2, read-out: MIC, thymidine concentration
P. aeruginosa EN0459 = assay: MIC; format: cell-based, Pseudomonas aeruginosa; conditions: Pseudomonas aeruginosa, Combination 2, read-out: MIC, thymidine concentration
E. coli EN013 = assay: MIC; format: cell-based, Escherichia coli; conditions: Escherichia coli
K. oxytoca EN0392 = assay: MIC; format: cell-based, Klebsiella oxytoca
P. aeruginosa EN005 = assay: MIC; format: cell-based, Pseudomonas aeruginosa; conditions: Pseudomonas aeruginosa, Combination 2, read-out: MIC, thymidine concentration
E. coli B EN0458 = assay: MIC; format: cell-based, Escherichia coli B; conditions: Escherichia coli, BEN0458, Combination 2, read-out: MIC, thymidine concentration
[1] = test system: A. pittii or A. nosocomialis EN0180; assay: MIC; format: cell-based, Acinetobacter pittii or nosocomialis; conditions: Combination 2, read-out: MIC, thymidine concentration
K. pneumoniae EN011 = assay: MIC; format: cell-based, Klebsiella pneumoniae; conditions: Klebsiella pneumoniae
P. aeruginosa EN014 = assay: MIC; format: cell-based, Pseudomonas aeruginosa; conditions: Pseudomonas aeruginosa, Combination 2, read-out: MIC, thymidine concentration
E. aerogenes EN0461 = assay: MIC; format: cell-based, Enterobacter aerogenes; conditions: Klebsiella aerogenes, Combination 2, read-out: MIC, thymidine concentration
K. pneumoniae EN010 = assay: MIC; format: cell-based, Klebsiella pneumoniae; conditions: Klebsiella pneumoniae, Combination 2, read-out: MIC, thymidine concentration
A. baumannii EN007 = assay: MIC; format: cell-based, Acinetobacter baumannii; conditions: Acinetobacter baumannii, Combination 2, read-out: MIC, thymidine concentration
K. pneumoniae EN0436 = assay: MIC; format: cell-based; conditions: in AZT+trimethoprim+uridine combination
S. flexneri APV00906 = assay: MIC; format: cell-based; conditions: S. flexneri APV00906; in FdUrd+trimethoprim+uridine combination
K. pneumoniae EN0142 = assay: MIC; format: cell-based; conditions: in AZT+trimethoprim+uridine combination
E. coli EN0138 = assay: MIC; format: cell-based; conditions: in AZT+trimethoprim+uridine combination
A. baumannii EN0007 = assay: MIC; format: cell-based, A. baumanii
[2] = test system: Helicobacter pylori APV00918; assay: MIC; format: cell-based; conditions: in FdUrd+trimethoprim+uridine combination
From the text: (§1) Inhibition of Heliobacter is important in view of increasing resistance and its association to gastric cancer.

[3] = test system: Helicobacter pylori ATTC43504; assay: MIC; format: cell-based; conditions: in AZT+trimethoprim+uridine combination
From the text: as §1

[4] = in vivo; cited from earlier work
P. aeruginosa EN0004 = assay: MIC; format: cell-based
E. coli EN0001 = assay: MIC; format: cell-based; conditions: in AZT+trimethoprim+uridine combination
K. pneumoniae EN0437 = assay: MIC; format: cell-based
E. coli EN0135 = assay: MIC; format: cell-based; conditions: in AZT+trimethoprim+uridine combination
K. pneumoniae EN0143 = assay: MIC; format: cell-based
E. coli EN0136 = assay: MIC; format: cell-based; conditions: in AZT+trimethoprim+uridine combination
S. sonnei APV00908 = assay: MIC; format: cell-based; conditions: S. sonnei APV00908
S. flexneri APV00907 = assay: MIC; format: cell-based; conditions: S. flexneri APV00907
K. pneumoniae EN0401 = assay: MIC; format: cell-based
[5] = Escherichia coli, Combination 2, read-out: MIC, thymidine concentration
[6] = in FdUrd+trimethoprim+uridine combination
[7] = in didanosine+trimethoprim+uridine combination
[8] = in AZT+trimethoprim+uridine combination

In the case of `Cc1cn([C@H]2C[C@H](O)[C@@H](CO)O2)c(=O)[nH]c1=O` [Thymidine, thymidine], the MIC (E. coli EN001; [5]) is reported as 30 µM, the MIC (K. pneumoniae EN0463) is reported as 8 µM and the MIC (P. aeruginosa EN004) is reported as > 120 µM. For the same molecule, the MIC (E. coli EN002; [5]) was 4 µM, the MIC (S. epidermidis EN0456) was 60 µM and the MIC (A. baumannii EN016) was > 120 µM. The MIC (S. aureus EN008) was > 120 µM, the MIC (S. marescens EN0454) was > 120 µM and the MIC (K. pneumoniae EN006) was 15 µM. For the same molecule, the MIC (E. coli EN012) was < 0.2 µM, the MIC (Citrobacter sp. EN0465) was > 120 µM and the MIC (P. aeruginosa EN0460) was > 120 µM. For the same molecule, the MIC (P. aeruginosa EN015; P. aeruginosa EN015, Combination 2, read-out: MIC, thymidine concentration) was 60 µM, the MIC (P. mirabilis ST19 EN0445) was > 120 µM and the MIC (M. luteus EN0455) was > 120 µM. The MIC (A. baumannii EN017) was 30 µM, the MIC (S. typhimurium EN0466; Salmonella enterica, Combination 2, read-out: MIC, thymidine concentration) was 15 µM and the MIC (E. coli EN003) was < 0.2 µM. For the same molecule, the MIC (P. mirabilis EN0457) was > 120 µM, the MIC (P. aeruginosa EN0422) was > 120 µM and the MIC (P. aeruginosa EN0459) was > 120 µM. The MIC (E. coli EN013; E. coli EN013, Combination 2, read-out: MIC, thymidine concentration) was < 0.2 µM, the MIC (K. oxytoca EN0392; Klebsiella oxytoca, Combination 2, read-out: MIC, thymidine concentration) was 15 µM and the MIC (P. aeruginosa EN005) was 30 µM. The MIC (E. coli B EN0458) was < 0.2 µM, the MIC [1] was > 120 µM and the MIC (K. pneumoniae EN011; K. pneumoniae EN011, Combination 2, read-out: MIC, thymidine concentration) was 8 µM. For the same molecule, the MIC (P. aeruginosa EN014) was > 120 µM, the MIC (E. aerogenes EN0461) was 60 µM and the MIC (K. pneumoniae EN010) was 30 µM. For the same molecule, the MIC (A. baumannii EN007) was > 120 µM.

Molecule `O=c1ccn([C@@H]2O[C@H](CO)[C@@H](O)[C@H]2O)c(=O)[nH]1` [Uridine, uridine] has an MIC (E. coli EN001; [6]) of 13 µg/mL, an MIC (E. coli EN001; [7]) of 13 µg/mL and an MIC (K. pneumoniae EN0436) of 13 µg/mL. The MIC (S. flexneri APV00906) was >400 µg/mL, the MIC (K. pneumoniae EN0142) was 13 µg/mL and the MIC (E. coli EN002; Combination 1 (AZT+trimethoprim+uridine)) was 1.6 µg/mL. The MIC (E. coli EN0138) was 1.6 µg/mL, the MIC (A. baumannii EN0007; [8]) was >400 µg/mL and the MIC (A. baumannii EN0007; [6]) was >400 µg/mL. The MIC (A. baumannii EN0007; [7]) was >400 µg/mL, the MIC [2] was 6 µg/mL and the MIC [3] was 13 µg/mL. For the same molecule, the oral bioavailability [4] was 7-8%, the MIC (P. aeruginosa EN015; EN015, P. aeruginosa EN015, Combination 1 (AZT+trimethoprim+uridine)) was 200 µg/mL and the MIC (P. aeruginosa EN015; EN015, P. aeruginosa EN015, Combination 2 (same mixed with thymidine)) was 200 µg/mL. For the same molecule, the MIC (P. aeruginosa EN015; EN015, P. aeruginosa EN015, in AZT+trimethoprim+uridine combination) was 500 µg/mL, the MIC (P. aeruginosa EN0004; [8]) was >400 µg/mL and the MIC (P. aeruginosa EN0004; [6]) was >400 µg/mL. For the same molecule, the MIC (P. aeruginosa EN0004; [7]) was >400 µg/mL, the MIC (E. coli EN0001) was 13 µg/mL and the MIC (K. pneumoniae EN0437; [6]) was >400 µg/mL. The MIC (K. pneumoniae EN0437; [7]) was >400 µg/mL, the MIC (S. typhimurium EN0466; [6]) was 13 µg/mL and the MIC (E. coli EN0135) was 13 µg/mL. For the same molecule, the MIC (K. pneumoniae EN0143; [6]) was >400 µg/mL, the MIC (K. pneumoniae EN0143; [7]) was >400 µg/mL and the MIC (E. coli EN0136) was 13 µg/mL. For the same molecule, the MIC (S. sonnei APV00908; [8]) was 3 µg/mL, the MIC (S. sonnei APV00908; [6]) was >400 µg/mL and the MIC (S. flexneri APV00907; [8]) was 200 µg/mL. For the same molecule, the MIC (S. flexneri APV00907; [6]) was >400 µg/mL, the MIC (E. coli EN013; EN013, E. coli EN013, Combination 1 (AZT+trimethoprim+uridine)) was < 0.8 µg/mL and the MIC (E. coli EN013; EN013, E. coli EN013, Combination 2 (same mixed with thymidine)) was < 0.8 µg/mL. The MIC (E. coli EN013; EN013, E. coli EN013, in AZT+trimethoprim+uridine combination) was < 2 µg/mL, the MIC (E. coli EN013; EN013, E. coli EN013, in FdUrd+trimethoprim+uridine combination) was 1.6 µg/mL and the MIC (E. coli EN013; EN013, E. coli EN013, in didanosine+trimethoprim+uridine combination) was 1.6 µg/mL. For the same molecule, the MIC (K. oxytoca EN0392; [6]) was 13 µg/mL, the MIC (K. pneumoniae EN011; EN011, K. pneumoniae EN011, Combination 1 (AZT+trimethoprim+uridine)) was 3.2 µg/mL and the MIC (K. pneumoniae EN011; EN011, K. pneumoniae EN011, in AZT+trimethoprim+uridine combination) was 30 µg/mL. The MIC (K. pneumoniae EN011; EN011, K. pneumoniae EN011, in FdUrd+trimethoprim+uridine combination) was 6 µg/mL, the MIC (K. pneumoniae EN011; EN011, K. pneumoniae EN011, in didanosine+trimethoprim+uridine combination) was 13 µg/mL and the MIC (K. pneumoniae EN0401; [6]) was >400 µg/mL. For the same molecule, the MIC (K. pneumoniae EN0401; [7]) was >400 µg/mL.
